Experiments:
[1] = test system: severe posthypoxic myoclonus
Description: After obtaining verbal consent from the patient and their spouse, they were given approximately six ounces of wine to drink (alcohol content 14% by volume). […] They were videotaped before and after the trial with alcohol.

[2] = test system: severe posthypoxic myoclonus; experiment: Earlier trials of anti-myoclonic medications in the Example 1 patient (case history); conditions: for reason for intolerance / adverse effect: human, in vivo
Description: The patient was referred to the Columbia University Medical Center Movement Disorder Center for evaluation of severe posthypoxic myoclonus at the age of 37. […] Back-averaged EEGs and somatosensory evoked potentials were not available.

[3] = approximately six ounces of wine
[4] = Example 1 patient, before the trial

Structure (SMILES)	outcome of trials of anti-myoclonic medications [2, 4]	reason for intolerance / adverse effect [2]	also measured
CCO [alcohol]	–	–	duration of anti-myoclonic effect [1, 3]: resolved in several hours; effect on myoclonus [1, 3]: dramatic improvement in myoclonus; time to improvement in myoclonus ([1]; approximately six ounces of wine (alcohol content 14% by volume)): ≤ 30 min
O=C1CN=C(c2ccccc2Cl)c2cc([N+](=O)[O-])ccc2N1 [clonazepam]	only minimally successful	–	dose-limiting side effect [2, 4]: dose-limiting sedation; effect on severity of myoclonus [2, 4]: partially improved
CC[C@@H](C(N)=O)N1CCCC1=O [levetiracetam]	only minimally successful	–	–
CC1(C)O[C@@H]2[C@@H](CO[C@@]3(COS(N)(=O)=O)OC(C)(C)O[C@@H]23)O1 [topiramate]	only minimally successful	–	–
CCCC(CCC)C(=O)O [valproic acid]	only minimally successful	drop in platelet count	–
NS(=O)(=O)Cc1noc2ccccc12 [zonisamide]	only minimally successful	anorexia	–

Source: US20090137565A1, “Method for treatment of movement disorders” (The Trustees of Columbia University in the City of New York, priority 2004, published 2009)
